Data from paper PMC5071857, “A unique peptide deformylase platform to rationally design and challenge novel active compounds” (Scientific Reports, 2016).
Like-named read-outs stand apart in the source and are kept apart here.

Experiments:
[1] = test system: E. aerogenes Ea294, Ea289 derivative AcrAB-; assay: MIC by microdilution, E. aerogenes Ea294; format: cell-based, Enterobacter aerogenes; settings: for MIC Ea294: +PMBN at 1/5 of its MIC, average of three assays; for MIC: Klebsiella aerogenes, 18 h, read-out: MIC Ea294
Text: (§1) Two E. coli strains, one B. subtilis strain, one S. aureus strain, one E. faecalis strain, one S. agalactiae strain and three Enterobacter aerogenes strains previously described were used. Briefly, AG100 was an E. coli wild type strain and AG100A its acrAB^- derivative. EA289 was a Kan^s derivative of an E. aerogenes multi-drug resistant (MDR) clinical isolate overexpressing AcrAB-TolC efflux pumps, and EA294 and EA298 its acrAB^- and tolC^- derivatives respectively. Strains were routinely grown at 37 °C on Luria-Bertani (LB) agar or in Mueller-Hinton II broth (MH), supplemented with kanamycine (50 μg.mL^−1) for AG100A, EA294 and EA298.
(§2) MIC values of antibiotics were determined by the microdilution method in liquid MH media in microplates in the absence or presence of chemosensitizers/modulators (e.g. PMBN, PAβN), as previously described. Permeabilization, blocking of efflux pumps, and isolates with different levels of porin or efflux expression were used to assess the involvement of the membrane barrier in antibiotic activity.
(§3) Susceptibilities were determined in 96-wells microplates with an inoculum of 2 × 10^5 cfu in 200 μL of MH broth containing two-fold serial dilutions of each antibiotics or compounds. Molecules were tested alone or in combination with other molecules in equimolar ratio. MICs were realized in the absence and in the presence of a membrane permeabilizer, the polymyxine B nonapeptide (PMBN) used at 51.2 mg/L (1/5 or 1/10 of its direct MIC previously determined). Actinonin and ciprofloxacin were used as internal antibiotic reference. […] Each test was systematically performed in triplicate. The average of three independent assays is presented in μg/mL in the respective tables.

[2] = test system: E. aerogenes Ea298, Ea289 derivative tolC-; assay: MIC by microdilution, E. aerogenes Ea298; format: cell-based, Enterobacter aerogenes; settings: for MIC Ea298: +PMBN at 1/5 of its MIC, average of three assays; for MIC: Klebsiella aerogenes, 18 h, read-out: MIC Ea298
Text: as §1, §2, §3

[3] = test system: E. aerogenes Ea289, MDR strain; assay: MIC by microdilution, E. aerogenes Ea289; format: cell-based, Enterobacter aerogenes; settings: for MIC Ea289: +PMBN at 1/5 of its MIC, average of three assays; for MIC: Klebsiella aerogenes, 18 h, read-out: MIC Ea289
Text: as §1, §2, §3

[4] = test system: E. coli AG100A (AcrAB- derivative); assay: MIC by microdilution, E. coli AG100A; format: cell-based; settings: for MIC: Escherichia coli, 18 h, read-out: MIC AG100A; for MIC AG100A: with PMBN at 1/5 of its MIC, 18 h at 37 °C, average of three assays
Text: as §1, §2, §3

E. faecalis EFA 103.214 = assay: MIC, E. faecalis EFA 103.214; format: cell-based
Text: as §1, §2, §3

S. aureus SA113 = assay: MIC, S. aureus SA113; format: cell-based; settings: Staphylococcus aureus
Text: as §1, §2, §3

EcPDF = target: T1, EcPDF (Escherichia coli, UniProt P0A6K3); assay: PDF inhibition, formate dehydrogenase-coupled spectrophotometric assay (EcPDF); format: biochemical
T1 construct: made in house
T1 sequence (P0A6K3 whole entry): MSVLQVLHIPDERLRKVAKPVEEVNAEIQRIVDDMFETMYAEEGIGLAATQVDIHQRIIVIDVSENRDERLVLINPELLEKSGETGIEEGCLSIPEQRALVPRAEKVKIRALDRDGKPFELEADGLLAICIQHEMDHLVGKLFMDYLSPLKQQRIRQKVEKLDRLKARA
Method: (§4) The formate released by the deformylation reaction is used by FDH to convert NAD in NADH, the production of which being measured over time at 340 nm and controlled temperature (37 °C). The 200 μL reaction mixture contained 50 mM HEPES-NaOH pH7.5, 12 mM NAD^+, 4.5 U/mL FDH, 1 mM NiCl2 and PDF enzyme (either 40 nM SaPDF or 10 nM EcPDF or 100 nM AtPDF1B) previously diluted in presence of 0.1 mg/mL BSA. The reaction was started by addition of 1–6 mM Fo-Met-Ala-Ser. Kinetics parameters (kcat, Km) were derived from iterative non-linear least square fits using the Michaelis-menten equation based on the experimental data (Sigma-Plot, Kinetics module).
(§5) 1/KI*app is the slope of the v0/vi curve in function of compound concentration, where v0 and vi are the initial reaction rates in absence and presence of compound, respectively.
(§6) Determination of KI values was performed with a slightly modified protocol: reaction was started by addition of enzyme instead of Fo-Met-Ala-Ser, the latter being directly added to the mixture containing increasing concentrations of each compound. No pre-incubation of enzyme in presence of compound was done. 1/KI is the slope of the v0/vi curve in function of compound concentration, where v0 and vi are the initial reaction rates in absence and presence of compound respectively.

E. coli AG100 = assay: MIC by microdilution, E. coli AG100; format: cell-based; settings: 18 h at 37 °C, average of three assays; for MIC: Escherichia coli, AG100, without PMBN; for MIC AG100: with PMBN at 1/5 of its MIC
Text: as §1, §2, §3

SaPDF [5] = target: T2, SaPDF (Streptococcus agalactiae serotype III, UniProt Q8E378, S2A); assay: biochemical; settings: for Ki: SaPDF KI, no pre-incubation, assay initiated by addition of enzyme, 40 nM SaPDF, 37 °C; for SaPDF KI/KI*app: enhancement potency (slow tight-binding)
T2 construct: the recombinant protein contains all residues of the 204 amino acids mature protein; made in house; host or cells: E. coli Rosetta 2(DE3)pLysS
T2 sequence (Q8E378 whole entry S2A): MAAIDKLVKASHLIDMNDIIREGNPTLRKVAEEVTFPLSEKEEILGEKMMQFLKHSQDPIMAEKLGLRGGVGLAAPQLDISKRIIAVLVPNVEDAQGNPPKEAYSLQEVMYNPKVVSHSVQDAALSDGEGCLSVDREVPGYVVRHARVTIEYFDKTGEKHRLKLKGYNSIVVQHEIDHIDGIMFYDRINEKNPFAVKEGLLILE
Method: as §4, with “Enzymatic activity was measured by a spectrophotometric assay where peptide deformylase activity is coupled to that of formate dehydrogenase. The formate” for “The formate”
as §5, §6

AtPDF1B = target: T3, AtPDF1B (Arabidopsis thaliana, UniProt Q9FUZ2); assay: PDF inhibition, formate dehydrogenase-coupled spectrophotometric assay (AtPDF1B); format: biochemical; settings: 100 nM AtPDF1B; for IC50: 2 mM Fo-Met-Ala-Ser, 10 min pre-incubation at 37 °C; for Ki: PDFI pre-incubated with enzyme 10 min at 37 °C, read-out: AtPDF1B KI*app
T3 construct: made in house
T3 sequence (Q9FUZ2 83-273): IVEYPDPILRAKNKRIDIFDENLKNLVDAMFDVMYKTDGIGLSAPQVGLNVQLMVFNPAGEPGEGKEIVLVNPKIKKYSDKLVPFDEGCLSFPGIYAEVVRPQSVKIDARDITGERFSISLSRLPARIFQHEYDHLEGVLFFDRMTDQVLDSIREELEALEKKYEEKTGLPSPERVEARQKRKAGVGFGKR
Method: as §4, with “Enzymatic activity was measured by a spectrophotometric assay where peptide deformylase activity is coupled to that of formate dehydrogenase. The formate” for “The formate”
as §5, §6

SaPDF [6] = target: T2, SaPDF; assay: biochemical; settings: SaPDF KI*app, PDFI pre-incubated with enzyme 10 min at 37 °C, started by 2 mM Fo-Met-Ala-Ser; 40 nM SaPDF
[7] = Enterococcus faecalis, EFA103.214, read-out: MIC E. faecalis EFA 103.214
[8] = 10 nM EcPDF, 2 mM Fo-Met-Ala-Ser, 10 min pre-incubation at 37 °C, read-out: IC50 EcPDF
[9] = EcPDF KI*app, PDFI pre-incubated with enzyme 10 min at 37 °C, started by 2 mM Fo-Met-Ala-Ser, 10 nM EcPDF
[10] = PDFI pre-incubated with enzyme 10 min at 37 °C, started by 2 mM Fo-Met-Ala-Ser, 10 nM EcPDF, read-out: EcPDF KI*app

Structure (SMILES)	MIC Ea294 [1] [µg/mL]	MIC [1] [µg/mL]	MIC Ea298 [2] [µg/mL]	MIC [2] [µg/mL]	MIC Ea289 [3] [µg/mL]	MIC [3] [µg/mL]	MIC [4] [µg/mL]	MIC AG100A [4] [µg/mL]	MIC (E. faecalis EFA 103.214; [7]) [µg/mL]	MIC (S. aureus SA113) [µg/mL]	IC50 (EcPDF; [8]) [nM]	MIC (E. coli AG100) [µg/mL]	MIC AG100 (E. coli AG100) [µg/mL]	IC50 (SaPDF [5]) [nM]	IC50 (AtPDF1B) [nM]	Ki (SaPDF [6]) [nM]	IC50 (EcPDF) [nM]	Ki (EcPDF; [9]) [nM]	other results
O=C(O)c1cn(C2CC2)c2cc(N3CCNCC3)c(F)cc2c1=O [Ciprofloxacin, ciprofloxacin, reference compound]	8	16	4	8	64	64													
CCCC[C@H](CC(=O)NO)c1nc(-c2ccccc2)co1 [AT003]							> 64	16	> 64	> 64	190	> 64	64						
CCCC[C@H](CC(=O)NO)c1nc(Cc2ccc(C(=O)O)cc2)no1 [AT021]														211 ± 10	8200 ± 1000	200 ± 10	75 ± 2	76 ± 5	Ki (AtPDF1B): ~10000 nM
CCCCC(CC(=O)NO)c1nc(Cc2ccc(C)cc2)no1 (stereo not drawn) [AT012]							64	8	> 64	> 64		> 64	32	67 ± 5	460 ± 22	400 ± 35	27 ± 3	70 ± 8	Ki (AtPDF1B; started by 2 mM Fo-Met-Ala-Ser): 625 ± 30 nM
CCCCC(CC(=O)NO)c1nc(-c2ccc(C(F)(F)F)cc2)no1 (stereo not drawn) [AT011]	16	128	16	128	64	> 128	32	4	> 64	> 64		> 64	8	128 ± 32	6000	430 ± 39	215 ± 17	333 ± 13	Ki (SaPDF [5]): 400 ± 20 nM; SaPDF KI/KI*app (SaPDF [5]): 1; Ki (AtPDF1B; started by 2 mM Fo-Met-Ala-Ser): 5000 nM
CCCCC(CC(=O)NO)c1nc(Cc2ccc(-c3ccccc3)cc2)no1 (stereo not drawn) [AT014]							> 64	64	> 64	> 64		> 64	64	16 ± 2	550 ± 25	65 ± 10	25 ± 4	66 ± 3	Ki (SaPDF [5]): 84 ± 6 nM; SaPDF KI/KI*app (SaPDF [5]): 1; Ki (AtPDF1B; started by 2 mM Fo-Met-Ala-Ser): 909 ± 32 nM
CCCCC(CC(=O)NO)c1nc(-c2ccccc2)no1 (stereo not drawn) [AT006]							> 64	32	> 64	> 64	155	> 64	64						
CCCCC(CC(=O)NO)c1nc(C(=O)OCC)co1 (stereo not drawn) [AT004]							> 64	32	> 64	> 64	110	> 64	>64						
CCCCC(CC(=O)NO)c1nc(Cc2ccc3c(c2)OCO3)no1 (stereo not drawn) [AT016]							64	8		> 64	10 ± 1	> 64	64	10 ± 2		55 ± 5			Ki (SaPDF [5]): 67 ± 7 nM; SaPDF KI/KI*app (SaPDF [5]): 1; MIC (E. faecalis EFA 103.214; Enterococcus faecalis, EFA103.214; read-out: MIC E. faecalis EFA 103.214): > 64 µg/mL; Ki (EcPDF; [10]): 26 ± 5 nM; EcPDF KI/KI*app (EcPDF; enhancement potency (slow tight-binding)): 1; Ki (EcPDF; no pre-incubation, assay initiated by addition of enzyme, 10 nM EcPDF, 37 °C, read-out: EcPDF KI): 25 ± 3 nM
CC(C)(O/N=C(\C(=O)N[C@@H]1C(=O)N2C(C(=O)[O-])=C(C[n+]3ccccc3)CS[C@H]12)c1csc(N)n1)C(=O)O [Ceftazidim, ceftazidime, reference compound]	64	> 128	64	> 128	64	> 128													
CCCCC(CC(=O)NO)c1nc(-c2ccc([N+](=O)[O-])cc2)no1 (stereo not drawn) [AT001]							> 64	32			160	> 64	>64						
CCCCC(CC(=O)NO)c1nc(Cc2nc3ccccc3s2)no1 (stereo not drawn) [AT017]							64	8	> 64	> 64	30 ± 8	> 64	64	23 ± 4		85 ± 8			Ki (EcPDF; [10]): 41 ± 3 nM
O=C(N[C@H](CO)[C@H](O)c1ccc([N+](=O)[O-])cc1)C(Cl)Cl [Chloramphenicol, chloramphenicol, reference compound]	4	32	4	32	8	> 128													
